# Data: publication PMC12040169 (PLOS Biology, 2025)
# Experiment: in vitro
# Conditions: human, hela cells, % viability
row,SMILES,"viability at 28.5 h, 10 µM"
1,COc1cc(C)ccc1S(=O)(=O)Nc1cccc2cc[nH]c12 [CBK159511],81.8%
2,O=S(=O)(Nc1cccc2cc[nH]c12)c1ccc(Br)cc1C(F)(F)F [CBK159519],88.5%
3,CS(=O)(=O)Nc1ccc2c(ccn2Cc2ccccc2)c1 [CBK159527],104%
4,O=S(=O)(Nc1ccc2c(ccn2Cc2ccccc2)c1)c1cc(C(F)(F)F)cc(C(F)(F)F)c1 [CBK159540],94.7%
5,Cn1cnc(S(=O)(=O)Nc2cccc3cc[nH]c23)c1 [CBK159554],94%
6,CCc1c(C)nc2c(NC(C)=O)cccc2c1SCCC(=O)O [CBK159594T],106%
7,O=C(Nc1ccc2[nH]ccc2c1)c1ccc(Cl)cc1 [CBK159668],98.4%
8,O=C(Nc1ccc2[nH]ccc2c1)c1ccc(Br)cc1Cl [CBK159679],106%
9,O=C(Cc1cc(F)c(F)c(F)c1)Nc1ccc2[nH]ccc2c1 [CBK159684],91.7%
10,O=C(COc1ccc(F)cc1)Nc1ccc2[nH]ccc2c1 [CBK159689],98.6%
11,CN(C)CCCC(=O)Nc1ccc2[nH]ccc2c1 [CBK159698],114%
12,CN1CCC[C@H]1C(=O)Nc1ccc2[nH]ccc2c1 [CBK159699],97.6%
13,O=C(Cc1ccc(Cl)c(Cl)c1)NCCc1c[nH]c2ccc(Cl)cc12 [CBK159749],100%
14,O=C(NCCc1c[nH]c2ccc(Cl)cc12)c1ccc(Cl)cc1Cl [CBK159750],105%
15,O=C(Cc1cc(Cl)ccc1C(F)(F)F)NCCc1c[nH]c2ccc(Cl)cc12 [CBK159759],80.2%
16,O=C(NCCc1c[nH]c2ccc(Cl)cc12)c1ccc(Br)cc1Cl [CBK159762],89.1%
17,O=C(Cc1cc(F)c(F)c(F)c1)NCCc1c[nH]c2ccc(Cl)cc12 [CBK159768],112%
18,NS(=O)(=O)c1ccc(C(=O)NCCc2c[nH]c3ccc(Cl)cc23)cc1 [CBK159780],95.2%
19,O=C(NCCc1c[nH]c2ccc(Cl)cc12)c1ccoc1 [CBK159782],97.9%
20,O=C(Cc1ccc(Cl)cc1Cl)Nc1ccc2ncccc2c1 [CBK159787],91.5%
21,O=C(Nc1ccc2ncccc2c1)c1ccc(Cl)cc1Cl [CBK159793],96.5%

row,SMILES,"viability at 28.5 h, 10 µM"
1,O=C(Cc1cc(Cl)ccc1C(F)(F)F)Nc1ccc2ncccc2c1 [CBK159802],94.7%
2,O=C(Cc1cc(F)c(F)c(F)c1)Nc1ccc2ncccc2c1 [CBK159811],93%
3,Cc1cc(Br)ccc1C(=O)Nc1ccc2ncccc2c1 [CBK159814],92.1%
4,O=C(Nc1ccc2ncccc2c1)c1ccc(OC(F)(F)F)cc1 [CBK159815],90.9%
5,O=C(COc1ccc(F)cc1)Nc1ccc2ncccc2c1 [CBK159816],85.7%
6,CSCCC(=O)Nc1ccc2ncccc2c1 [CBK159818],87.2%
7,O=C(Nc1ccc2ncccc2c1)c1cccnc1 [CBK159820],94.1%
8,CN(C)CCCC(=O)Nc1ccc2ncccc2c1 [CBK159824],83.4%
9,O=C(Nc1cccc(C(F)(F)F)c1)c1c(O)c2ccccc2[nH]c1=O [CBK159985],93.2%
10,CC(C)c1c(O)c2ccccc2[nH]c1=O [CBK159988],89.4%
11,Cc1ccc2c(O)c(C(=O)NCc3cccs3)cnc2c1 [CBK159997],78.2%
12,O=C(Cc1c[nH]cn1)Nc1ccc2cc[nH]c2c1 [CBK160059],95.1%
13,O=C(Nc1cccc2cc[nH]c12)c1cc(F)cc(Cl)c1 [CBK160075],88.8%
14,O=C(Nc1cccc2cc[nH]c12)c1cc(F)c(Cl)cc1F [CBK160080],82.4%
15,O=C(Cc1c[nH]cn1)Nc1cccc2cc[nH]c12 [CBK160097],86.2%
16,O=C(c1ccc(F)cc1)C1CCN(C(=O)c2cccnc2NCc2ccc3c(c2)OCO3)CC1 [CBK160114],113%
17,CC(C)(C)OC(=O)NCCNC(=O)c1cccnc1NCc1ccc2c(c1)OCO2 [CBK160117],104%
18,CCOC(=O)c1[nH]c2ccccc2c1NC(=O)c1c(F)ccc(Cl)c1F [CBK160141],120%
19,CCOC(=O)c1[nH]c2ccccc2c1NC(=O)c1cc(F)cc(Cl)c1 [CBK160143],95.4%
20,CCOC(=O)c1[nH]c2ccccc2c1NC(=O)c1ccc(Cl)c(C)c1 [CBK160146],87%
21,CCOC(=O)c1[nH]c2ccccc2c1NC(=O)c1ccc(Br)cc1Cl [CBK160147],91.3%

row,SMILES,"viability at 28.5 h, 10 µM"
1,CCOC(=O)c1[nH]c2ccccc2c1NC(=O)c1ccc(OC(F)(F)F)cc1 [CBK160157],87.8%
2,CCOC(=O)c1[nH]c2ccccc2c1NC(=O)CN1C(=O)CSC1=O [CBK160163],102%
3,CCOC(=O)c1[nH]c2ccccc2c1NC(=O)c1ccoc1 [CBK160169],107%
4,CCOC(=O)c1[nH]c2ccccc2c1NC(=O)[C@@H]1CCCN1C [CBK160171T],84.9%
5,O=C(O)c1ccc(-c2ccc(OC(F)(F)F)cc2)nc1 [CBK160173T],90.6%
6,COC(=O)c1ccc(-c2ccc3[nH]ccc3c2)nc1 [CBK160174T],89.1%
7,COC(=O)c1ccc(-c2ccc(OC)c(OC)c2)nc1 [CBK160175T],98.7%
8,CC(=O)Nc1ccc(-c2ccc(C(=O)N3CCN(C(=O)c4ccco4)CC3)cn2)cc1 [CBK160186],85.8%
9,Nc1ncc(-c2ccc(C(=O)N3CCOCC3)cc2)cc1C(=O)Nc1ccncc1 [CBK160202],93.6%
10,COc1cccc(NC(=O)c2cc(-c3ccc(C(=O)N4CCOCC4)cc3)cnc2N)c1 [CBK160203],89.4%
11,CC(=O)N1CCc2ccc(NC(=O)c3cc(-c4ccc(C(=O)N5CCOCC5)cc4)cnc3N)cc21 [CBK160205],89.9%
12,Cc1ccc(NC(=O)c2cncc(-c3ccc(C(=O)N4CCOCC4)cc3)c2)c(O)c1 [CBK160208],84.3%
13,CC(=O)N1CCc2ccc(NC(=O)c3cncc(-c4ccc(C(=O)N5CCOCC5)cc4)c3)cc21 [CBK160217],77.8%
14,COCCNC(=O)c1cnn2c(C)c(Cc3ccccc3C)c(C)nc12 [CBK160253],94.5%
15,COC(=O)c1cnn2c(C)c(Cc3cccc(Br)c3)c(C)nc12 [CBK160273],90.4%
16,O=C(Cc1c(O)c2ccccc2[nH]c1=O)NCc1ccc(Cl)cc1 [CBK160317],101%
17,O=C(NCc1ccccc1)c1ccc2[nH]c(=O)c(-c3ccccc3)c(O)c2c1 [CBK160318],84%
18,O=C(Cc1c(O)c2ccccc2[nH]c1=O)NCc1ccccc1Cl [CBK160320],88%
19,CCNC(=O)c1cncc(-c2[nH]nnc2-c2ccccc2)c1 [CBK160354],96.9%
20,O=C(c1cncc(-c2[nH]nnc2-c2ccccc2)c1)N1CCCC1 [CBK160360],91.7%
21,O=S(=O)(Nc1cccc(-c2nnn[nH]2)c1)c1ccc(Br)s1 [CBK160377],101%

row,SMILES,"viability at 28.5 h, 10 µM"
1,CNC(=O)c1cccc(NS(=O)(=O)c2sc3ccc(Cl)cc3c2C)c1 [CBK160383],89.3%
2,COC(=O)C1C=C(NS(=O)(=O)c2ccc(-c3ccnc(SC)n3)s2)C=CC1 (stereo not shown) [CBK160388],104%
3,COC(=O)c1cccc(N(C)S(=O)(=O)c2sc3ccc(Cl)cc3c2C)c1 [CBK160390],94.1%
4,CCOC(=O)c1ccc(NCc2c(O)ccc3oc4c(c23)CCCC4)cc1 [CBK160394],97.7%
5,COc1ccccc1NCc1c(O)c(Br)cc2oc3c(c12)CCCC3 [CBK160398],93.4%
6,CS(=O)(=O)Nc1cccc(C(=O)O)c1 [CBK160404],96.3%
7,Cc1ccc(CN(C2CCN(C)CC2)S(=O)(=O)c2ccccc2F)cc1 [CBK160444T],90.8%
8,Cc1ccc(CN(C2CCN(C)CC2)S(=O)(=O)c2ccc(F)cc2F)cc1 [CBK160448T],97.5%
9,Cc1onc(-c2ccccc2)c1C(=O)N1CCC1 [CBK160450],90.6%
10,CC(=O)CCC(=O)N1CCN(C(=O)c2ccc(-c3ccc(S(C)(=O)=O)cc3)cn2)CC1 [CBK160484],105%
11,CC(C)(C)c1ccc(CN2CCN(C(=O)c3ccc(-c4ccc(S(C)(=O)=O)cc4)cn3)CC2)cc1 [CBK160487],96.1%
12,COc1ccc(CCN(CCN2CCOCC2)C(=O)NCc2ccc3c(c2)OCO3)cc1OC [CBK160540],93.3%
13,CCN(CC)C(=O)CN(CCc1ccc(OC)c(OC)c1)C(=O)NCc1cc(C)on1 [CBK160581],96.1%
14,COc1ccccc1CN(C1CCNCC1)S(=O)(=O)c1c(Cl)cccc1Cl [CBK160807T],89.2%
15,Brc1c(OCc2ccccc2)ccc2[nH]ccc12 [CBK160845],96.5%
16,NC(=O)CCNC(=O)C1(c2ccccc2)CCCC1 [CBK160929],104%
17,NCCNC(=O)c1cc(-c2ccc(Cl)cc2)[nH]n1 [CBK160975],110%
18,NCC(O)CNC(=O)c1cc(-c2ccc(Cl)cc2)[nH]n1 (stereo not shown) [CBK160977],87%
19,CCc1ccc(CNC(=O)Cn2nnc(-c3ccc(CNCC4CC4)cc3)n2)cc1 [CBK161032C],109%

# Same assay, conditions: human, hela cells, % viability, bulk resorufin, single well
row,SMILES,"viability at 28.5 h, 10 µM"
1,CC(C)(C)OC(=O)N1CCC2(CC1)OCc1cc(-c3ccc(S(C)(=O)=O)nc3)ccc1O2 [CBK159619],83.6%
2,CS(=O)(=O)c1ccc(-c2ccc3c(c2)COC2(CCN(C(=O)CCCc4ccc(F)cc4)CC2)O3)cc1 [CBK160586],92.5%
3,CS(=O)(=O)c1ccc(-c2ccc3c(c2)COC2(CCN(C(=O)CC4CCCCC4)CC2)O3)cc1 [CBK160589],96.7%
4,CS(=O)(=O)c1ccc(-c2ccc3c(c2)COC2(CCN(C(=O)Cc4cccc(C(F)(F)F)c4)CC2)O3)cn1 [CBK160595],114%
5,CS(=O)(=O)c1ccc(-c2ccc3c(c2)COC2(CCN(C(=O)CC4CCCCC4)CC2)O3)cn1 [CBK160596],93.3%
6,CC(C)(N)C(=O)N1CCC2(CC1)OCc1cc(-c3ccc(S(C)(=O)=O)nc3)ccc1O2 [CBK160868],93.3%
